Experiment [1] has as its target T1, G-protein coupled receptor 6 (Homo sapiens, UniProt P46095). Description: Modulation activity at GPR6 receptor (unknown origin) expressed in CHO-K1 cells assessed as inhibition of constitutive cAMP activity incubated for 45 mins by Perkin Elmer Lance HTRF Ultrac-AMP assay. It counts as functional, cell-based. On the technique in general: In TR-FRET formats the signal depends on donor and acceptor labels being close together.

The target in experiment [2] is T1, G-protein coupled receptor 6. The experiment in a line: Modulation activity at GPR6 receptor (unknown origin) expressed in CHO-K1 cells assessed as inhibition of constitutive cAMP activity incubated for 45 mins in presence of 300 uM IBMX by Perkin Elmer Lance HTRF Ultrac-AMP assay. The settings on record: cho-k1. It counts as functional, cell-based.
The test system of experiment [3] is Rattus norvegicus. The experiment in a line: Reversal of haloperidol-induced catalepsy in Sprague-Dawley rat model of Parkinson's disease assessed as reduction in catalepsy intensity index at 0.1 mg/kg, ip dosed along with haloperidol and measured after 30 mins relative to untreated control. It counts as functional. Set-up: scale not given: the % may be the effect or the level left.

Results on 54 compounds are retold here after ChEMBL document CHEMBL4419121, “Tetrahydropyridopyrazines modulators of gpr6” (2018).

T1 sequence (P46095 whole entry): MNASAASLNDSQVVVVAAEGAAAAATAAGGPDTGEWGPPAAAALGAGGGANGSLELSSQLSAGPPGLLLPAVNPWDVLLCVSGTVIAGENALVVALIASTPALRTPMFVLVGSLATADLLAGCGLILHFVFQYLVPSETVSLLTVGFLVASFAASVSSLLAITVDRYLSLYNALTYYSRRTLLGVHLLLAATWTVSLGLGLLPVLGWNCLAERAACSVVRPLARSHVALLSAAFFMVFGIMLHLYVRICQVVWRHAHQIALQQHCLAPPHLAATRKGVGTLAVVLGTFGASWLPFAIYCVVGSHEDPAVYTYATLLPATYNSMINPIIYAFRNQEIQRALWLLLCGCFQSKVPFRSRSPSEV

Regarding `CC(C)Nc1nc2c(nc1N1CCC(C(F)c3ccc(F)cc3F)CC1)CCN(C(=O)N(C)C)C2` (stereo unspecified), in experiment [1], the IC50 (usually the concentration that gives 50% inhibition) turned out to be 19.7 nM. Same read-out and setting: the same measure for `CC(=O)N1CCc2nc(NC(C)C)c(N3CCC(Oc4ccc(C#N)cc4F)CC3)nc2C1`: 105 nM. On the same count and under the same terms, the same measure for `CC1c2nc(N3CCC(Oc4ccc(F)cc4F)CC3)c(NCC(F)F)nc2CCN1S(C)(=O)=O` (stereo unspecified): 52 nM. Take `COc1ccc(OC2CCN(c3nc4c(nc3NC(C)C)CCN(C)C4)CC2)c(F)c1`: the IC50 in experiment [1] came to 26.6 nM. The same measure, in the same setting: the same measure for `COc1ccc(OC2CCN(c3nc4c(nc3NC(C)C)CCN(C(=O)N(C)C)C4)CC2)c(F)c1`: 16.6 nM; for `CC(C)Nc1nc2c(nc1N1CCC(C(=O)c3cc(Cl)ccc3F)CC1)CN(C)CC2`: 8.8 nM. The same measure, in the same setting: the same measure for `CC1c2nc(NCC(F)F)c(N3CCC(Oc4ccc(F)cc4F)CC3)nc2CCN1C(=O)C1CC1` (stereo unspecified): 85 nM.

With `CN(C)C(=O)N1CCc2nc(NCC(F)F)c(N3CCC(Oc4ccc(F)cc4F)CC3)nc2C1`, in experiment [1], the IC50 was 9.1 nM.

Take `CC(C)Nc1nc2c(nc1N1CCC(C(=O)c3cc(Cl)ccc3F)CC1)CCN(C(=O)N(C)C)C2`: the IC50 in experiment [1] turned out to be 32.7 nM. Still for that read-out and setting: the same measure for `CN1CCc2nc(NC3CC3)c(N3CCC([C@@H](F)c4ccc(F)cc4F)CC3)nc2C1`: 26.5 nM; for `CO[C@H](C)C(=O)N1CCc2nc(NCC(F)F)c(N3CCC(Oc4ccc(F)cc4F)CC3)nc2C1`: 6.6 nM. Take `CC(C)Nc1nc2c(nc1N1CCC(Oc3ccc(F)cc3F)CC1)CCN(C(=O)N1CCCC1)C2`: the IC50 in experiment [1] amounted to 391 nM. Still for that read-out and setting: the same measure for `CC1Cc2nc(NCC(F)F)c(N3CCC(Oc4ccc(F)cc4F)CC3)nc2CN1C(=O)C(F)F` (stereo unspecified): 22.1 nM; for `CC(C)Nc1nc2c(nc1N1CCC(Oc3ccc(F)cc3F)CC1)CCN(C(=O)N1CCOCC1)C2`: 62.6 nM; for `COCC(=O)N1CCc2nc(NC(C)C)c(N3CCC(Oc4ccc(F)cc4F)CC3)nc2C1C` (stereo unspecified): 91 nM. The same measure, in the same setting: the same measure for `CC(C)Nc1nc2c(nc1N1CCC(Oc3ccc(F)cc3F)CC1)CN(C(=O)N(C)C)CC2`: 13.8 nM. The same measure, in the same setting: the same measure for `CC(=O)N1CCc2nc(N3CCC(Oc4ccc(F)cc4F)CC3)c(NCC(F)F)nc2C1C` (stereo unspecified): 178 nM.

`CC(=O)N1CCc2nc(NC(C)C)c(N3CCC(Oc4ccc(F)cc4F)CC3)nc2C1`: the IC50 in experiment [1] is 9.5 nM; in experiment [2], 73.7 nM.

Turning to `CO[C@H](C)C(=O)N1CCc2nc(N3CCC(Oc4ccc(F)cc4F)CC3)c(NCC(F)F)nc2C1`, the IC50 in experiment [1] came out at 64 nM. Same read-out and setting: the same measure for `CO[C@@H](C)C(=O)N1Cc2nc(N3CCC(Oc4ccc(F)cc4F)CC3)c(NCC(F)F)nc2CC1C` (stereo partly specified): 20.9 nM; for `COc1ccc(OC2CCN(c3nc4c(nc3NC(C)C)CN(C(=O)N(C)C)CC4)CC2)c(F)c1`: 35 nM; for `COCC(=O)N1CCc2nc(N3CCC(Oc4ccc(F)cc4F)CC3)c(NCC(F)F)nc2C1C` (stereo unspecified): 208 nM. Same read-out and setting: the same measure for `CC1Cc2nc(NCC(F)F)c(N3CCC(Oc4ccc(F)cc4F)CC3)nc2CN1C(=O)N(C)C` (stereo unspecified): 31.4 nM; for `CO[C@@H](C)C(=O)N1CCc2nc(N3CCC(Oc4ccc(F)cc4F)CC3)c(NCC(F)F)nc2C1`: 111 nM; for `CC(C)Nc1nc2c(nc1N1CCC(Oc3ccc(F)cc3F)CC1)C(C)N(C(=O)C1CC1)CC2` (stereo unspecified): 259 nM. On to `CC1Cc2nc(NCC(F)F)c(N3CCC(Oc4ccc(F)cc4F)CC3)nc2CN1C` (stereo unspecified), for which the IC50 in experiment [1] was found to be 23.2 nM. The same measure, in the same setting: the same measure for `CO[C@@H](C)C(=O)N1CCc2nc(NCC(F)F)c(N3CCC(Oc4ccc(F)cc4F)CC3)nc2C1`: 8.3 nM; for `COc1ccc(OC2CCN(c3nc4c(nc3NC3CCC3)CN(C(C)=O)CC4)CC2)c(F)c1`: 19.9 nM. The same measure, in the same setting: the same measure for `CC(=O)N1Cc2nc(N3CCC(Oc4ccc(F)cc4F)CC3)c(NCC(F)F)nc2CC1C` (stereo unspecified): 24.9 nM; for `CC1c2nc(N3CCC(Oc4ccc(F)cc4F)CC3)c(NCC(F)F)nc2CCN1C(=O)C1CC1` (stereo unspecified): 126 nM. Take `CC(C)Nc1nc2c(nc1N1CCC(C(F)c3ccc(F)cc3F)CC1)CN(C(=O)N(C)C)CC2` (stereo unspecified): in experiment [1], the IC50 came to 23.7 nM.

`CC(C)Nc1nc2c(nc1N1CCC(Oc3ccc(F)cc3F)CC1)CCN(C(=O)c1ccno1)C2`: the IC50 in experiment [1] was determined as 38.7 nM.

Turning to `CC1Cc2nc(NCC(F)F)c(N3CCC(Oc4ccc(F)cc4F)CC3)nc2CN1S(C)(=O)=O` (stereo unspecified), in experiment [1], the IC50 is 10.4 nM. Take `CC(C)Nc1nc2c(nc1N1CCC(Oc3ccc(F)cc3F)CC1)CN(C(=O)CC#N)CC2`: the IC50 in experiment [1] came out at 18 nM. Take `COc1ccc(OC2CCN(c3nc4c(nc3NC3CCC3)CCN(C(=O)N(C)C)C4)CC2)c(F)c1`: the IC50 in experiment [1] was 13.8 nM. For `CC(=O)N1CCc2nc(NC(C)C)c(N3CCC(C(=O)c4cc(Cl)ccc4F)CC3)nc2C1`, in experiment [1], the IC50 stood at 9.8 nM. The same measure, in the same setting: the same measure for `CC(=O)N1CCc2nc(NC(C)C)c(N3CCC(C(F)c4ccc(F)cc4F)CC3)nc2C1` (stereo unspecified): 8.5 nM. Still for that read-out and setting: the same measure for `CN1CCc2nc(NC3CC3)c(N3CCC(C(F)c4ccc(F)cc4F)CC3)nc2C1` (stereo unspecified): 9.4 nM; for `CC(C)Nc1nc2c(nc1N1CCC(Oc3ccc(F)cc3F)CC1)CCN(C(=O)C1CCCO1)C2` (stereo unspecified): 17.9 nM; for `CC(C)Nc1nc2c(nc1N1CCC(Oc3ccc(F)cc3F)CC1)CCN(C(=O)N(C)C)C2`: 10.4 nM. Turning to `CC(C)Nc1nc2c(nc1N1CCC(Oc3ccc(C#N)cc3F)CC1)CN(C(=O)C1CC1)CC2`, in experiment [1], the IC50 came out at 122 nM. Turning to `COc1ccc(OC2CCN(c3nc4c(nc3NC3CC3)CCN(C)C4)CC2)c(F)c1`, the IC50 in experiment [1] was 145 nM. The same measure, in the same setting: the same measure for `CN(C)C(=O)N1CCc2nc(N3CCC(Oc4ccc(F)cc4F)CC3)c(NCC(F)F)nc2C1`: 26.9 nM. The same measure, in the same setting: the same measure for `CC(=O)N1CCc2nc(NCC(F)F)c(N3CCC(Oc4ccc(F)cc4F)CC3)nc2C1C` (stereo unspecified): 76 nM; for `COCC(=O)N1Cc2nc(N3CCC(Oc4ccc(F)cc4F)CC3)c(NCC(F)F)nc2CC1C` (stereo unspecified): 23 nM. Same read-out and setting: the same measure for `CC(C)Nc1nc2c(nc1N1CCC(Oc3ccc(F)cc3F)CC1)CCN(S(=O)(=O)C(C)C)C2`: 149 nM. As for `COCC(=O)N1CCc2nc(NCC(F)F)c(N3CCC(Oc4ccc(F)cc4F)CC3)nc2C1C` (stereo unspecified), the IC50 in experiment [1] was determined as 68 nM. Still for that read-out and setting: the same measure for `CC(=O)N1CCc2nc(NCC(F)F)c(N3CCC(Oc4ccc(F)cc4F)CC3)nc2C1`: 11.5 nM.

As for `CC(=O)N1CCc2nc(N3CCC(Oc4ccc(F)cc4F)CC3)c(NC(C)C)nc2C1`, the Activity in experiment [3] is -5.7%. Moreover, in experiment [2], the IC50 came out at 24.6 nM. Take `COCCNC(=O)N1CCc2nc(NC(C)C)c(N3CCC(Oc4ccc(F)cc4F)CC3)nc2C1`: in experiment [1], the IC50 stood at 14.9 nM. Same read-out and setting: the same measure for `CC(C)Nc1nc2c(nc1N1CCC(C(=O)c3cc(Cl)ccc3F)CC1)CN(C(=O)N(C)C)CC2`: 24.9 nM; for `CN1CCc2nc(NC3CC3)c(N3CCC([C@H](F)c4ccc(F)cc4F)CC3)nc2C1`: 15.2 nM. Still for that read-out and setting: the same measure for `COCCNC(=O)N1CCc2nc(N3CCC(Oc4ccc(F)cc4F)CC3)c(NC(C)C)nc2C1`: 29.8 nM; for `CC1Cc2nc(NCC(F)F)c(N3CCC(Oc4ccc(F)cc4F)CC3)nc2CN1C(=O)C1CC1` (stereo unspecified): 23.9 nM.
